According to paper PMC3849007 (Journal of Experimental & Clinical Cancer Research : CR, 2013):

How the values were obtained:
[1] = target: T1, human recombinant β2 adrenergic receptor (Homo sapiens, UniProt P07550); test: β2-adrenergic receptor binding assay (CHO expressing cells)
T1 construct: expressed in transfected cells; host or cells: CHO
Experimental: For hERG study, HEK293 cells were cultured (1–7 days) in DMEM/GlutaMax-1 + 10% FBS and were plated on collagen-coated dishes (about 2×10^4 cells/dish). The cell was held at -80 mV. A 50-millisecond pulse to -40 mV was delivered to measure the leaking currents, which were subtracted from the tail currents online. […] This paradigm was delivered once every 5 seconds to monitor the current amplitude. After the current amplitude stabilized, the test compound was delivered to the extracellular medium by a rapid solution changer perfusion system. During perfusion, the cell was repetitively stimulated with the protocol described above, and the current amplitude was continuously monitored. Data were acquired and analyzed by using pClamp (Axon Instruments), and Excel (Microsoft), and are reported as mean and individual values. The degree of inhibition (%) was obtained by measuring the tail current amplitude before and after drug superfusion (the difference current was normalized to control and multiplied by 100 to obtain the percent of inhibition). […] The concentration-response relationship of each compound was constructed from the percentage reductions of current amplitude by sequential concentrations. β2-adrenergic receptor CHO expressing cells were used for the receptor inhibition assay as described. The results are expressed as a percent of inhibition of control specific binding (100 - (measured specific binding/control specific binding) × 100)) obtained in the presence of the test compounds. The specific ligand binding to the receptors is defined as the difference between the total binding and the nonspecific binding determined in the presence of an excess of unlabelled ligand. All the in-vivo experiments were carried out at the Regina Elena Cancer Institute.
Inhibition of receptor was reported as inhibition of control specific binding (100 - (measured specific binding/control specific binding) × 100) obtained in the presence of the test compounds.

[2] = test system: h-Tel (anti-parallel) quadruplex; test: CD thermal unfolding of h-Tel quadruplex; format: binding, human; details: for CD study thermal stability ∆Tm: compared to h-Tel without bound ligand (Tm 70 ± 3); for CD study thermal stability Tm: h-Tel 4 μM with 3.5 mol.equiv. ligand, K+ solution, unfolding at 290 nm
Experimental: CD spectra were recorded on an Applied Photophysics Pi-Star-180 spectrophotometer (Applied Photophysics Ltd, Surrey, UK). The optical system was configured with a 75 W Xe lamp, circular light polarizer and end-mounted photomultiplier. The instrument had previously been calibrated with (D)-camphorsulfonic acid. Temperature was regulated using a Neslab RTE-300 circulating programmable water bath (Neslab Inc). CD spectra were recorded at 298 K in a 10 mm path length cell over a wavelength range of 215–345 nm in steps of either 1 0r 2 nm, with 3 nm entrance/exit slit widths: the number of counts was set to 10,000 with adaptive sampling set to 500,000. The spectra were corrected by subtracting the spectrum of the same buffer solution of 100 mM potassium chloride and 10 mM potassium phosphate at pH 7.0. Annealing and melting profiles were recorded using a thermoelectric temperature controller (Melcor) on 4 μM DNA samples with and without 3.5 mol.equiv. of ligands using 0.5 K temperature increments and a cooling or heating rate of 0.2 K/min over the temperature range 298-368 K.
This analysis was extended to examine the effects of ligand binding on thermal stability by measuring the unfolding curves at 290 nm of the complexes formed in K^+ solution, corresponding to the CD spectra shown in Figure 4a. Monitoring the thermal unfolding transition for h-Tel produces a sigmoidal unfolding curve with a transition mid-point Tm value of 72 ± 3°C (Figure 4c). All three ligands show significant effects in enhancing the stability of the quadruplex by shifting the Tm values to higher temperatures (∆Tm ~ 15-19°C compared to h-Tel without bound ligands) (Table 1).

BJ-EHLT fibroblasts = test: Proliferation assay, transformed fibroblasts; format: cell-based, human; details: 0.5 μM, culture day 2 to 8
Experimental: BJ fibroblasts expressing hTERT (BJ-hTERT) or hTERT and SV40 early region (BJ-EHLT), were obtained as previously reported. Cells were grown in Dulbecco Modified Eagle Medium (D-MEM, Invitrogen Carlsbad, CA, USA) supplemented with 10% fetal calf serum, 2 mM L-glutamin and antibiotics.
5 × 10^4 cells were seeded in 60-mm Petri plates (Nunc, MasciaBrunelli, Milano, Italy) and 24 h after plating, 0.5 μM of freshly dissolved compound was added to the culture medium. Cell counts (Coulter Counter, Kontron Instruments, Milano, Italy) and viability (trypan blue dye exclusion) were determined daily, from day 2 to day 8 of culture.

[3] = test system: h-Tel 5'-d[AGGG(TTAGGG)3]-3' (DNA, G4) AGGGTTAGGGTTAGGGTTAGGG; test: CD melting at 290 nm; details: 110 mM K+ (100 mM KCl, potassium phosphate), 10 mM potassium phosphate, pH 7.0, 4 μM DNA, 3.5 mol equiv. ligand
[4] = test system: h-Tel quadruplex (Q) DNA, 5'-biotin-d[AG3(T2AG3)3] (DNA, G4) AGGGTTAGGGTTAGGGTTAGGG; test: surface plasmon resonance; details: 200 mM KCl; 10 mM HEPES, 3 mM EDTA, 0.01% P20, pH 7.4
[5] = test system: h-Tel quadruplex DNA 5′-d[AGGG(TTAGGG)3]-3′; test: Surface plasmon resonance, quadruplex DNA; details: for Surface plasmon resonance K, Quadruplex (Q) DNA: 10 mM HEPES, 200 mM KCl, 3 mM EDTA, 0.01% P20, pH 7.4, equilibrium binding constant
Description: Oligonucleotides 5′-biotin-d[AG3(T2AG3)3] quadruplex and 5′-biotin-CGA3T3C(CT)2GA3T3CG were purchased from Midland Certified Reagent Company (Midland, TX).
In the present work these measurements were repeated comparing ligand binding to the same h-Tel sequence but with a different duplex sequence 5′-d[CGA3T3C(CT)2GA3T3CG]-3′ as comparator.

[6] = test system: h-Tel 5'-d[AGGG(TTAGGG)3]-3' (DNA, G4) AGGGTTAGGGTTAGGGTTAGGG; test: CD spectroscopy, induced anti-parallel structure; details: no significant K+; 298 K; 3.5 molar equivalents of ligand; band at 290 nm emerges

T1 sequence (P07550 whole entry): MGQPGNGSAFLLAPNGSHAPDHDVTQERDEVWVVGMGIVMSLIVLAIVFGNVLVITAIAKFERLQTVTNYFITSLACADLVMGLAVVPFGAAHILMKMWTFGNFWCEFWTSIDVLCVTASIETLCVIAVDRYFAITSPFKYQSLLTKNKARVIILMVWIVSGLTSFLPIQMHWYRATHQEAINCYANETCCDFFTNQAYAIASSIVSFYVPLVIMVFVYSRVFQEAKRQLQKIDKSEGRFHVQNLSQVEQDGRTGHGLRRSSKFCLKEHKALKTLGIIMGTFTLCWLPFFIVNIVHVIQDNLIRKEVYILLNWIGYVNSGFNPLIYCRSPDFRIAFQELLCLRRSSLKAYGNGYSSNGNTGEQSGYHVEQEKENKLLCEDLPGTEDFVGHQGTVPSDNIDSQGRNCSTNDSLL

B2 adrenergic % inhib. (10 μM) ([1]; 10 μM, inhibition of control specific binding, CHO cells)	∆Tm ([3]; Tm 85 ± 3)	Structure (SMILES)	inhibition at 1 µM ([1]; 1 μM, Cerep ExpresSProfile screen, read-out: % inhibition of ligand binding, β2 adrenergic receptor)	inhibition at 10 µM ([1]; 10 μM, inhibition of control specific binding, CHO cells, read-out: B2 adrenergic % inhib. (10 μM))	CD study thermal stability ∆Tm [2]	CD study thermal stability Tm [2]	day of maximum effect on cell proliferation (BJ-EHLT fibroblasts)	∆Tm ([3]; Tm 86 ± 3)	K [4]	Surface plasmon resonance K, Quadruplex (Q) DNA [5]	Ratio Q/D (SPR) ([5]; quadruplex K / duplex K)	binding [6]
		Cc1cc2c3c([n+](C)c4ccc(F)cc4c3c1)-c1cc(F)ccc1N2C [Compound 1, 3,11-Difluoro-6,8,13-trimethyl-8H-quino[4,3,2-kl]acridinium metho-sulfate]	> 95%	100%	16 °C	86 ± 3 °C	6 days	16 °C	8.3e+06 M⁻¹	8.3e+06 M⁻¹	13.8	yes
29%	15 °C	CC(=O)Nc1ccc2c(c1)c1cccc3c1c([n+]2C)-c1ccccc1N3C [Compound 3, 3-acetylamino-8,13-dimethyl-8H-quino[4,3,2-kl]-acridinium iodide]			15 °C	85 ± 3 °C	seven		8e+06 M⁻¹	8e+06 M⁻¹		yes
